# Test results taken from US7871808B2, “Isolated microorganism having an ability to produce L-histidine” (priority 1999, dated 2011).
# Counter-ions that a name gives are not always drawn.
# Test system: mutant strain H-9341
# Assay: Comparative test of growth on agar plate culture medium containing primaquine (mutant strain)
# Assay type: cell-based, Escherichia coli
# Details: 150 mg/liter primaquine disodium salt in agar plate medium, 1 to 10 cells/cm^2, 33° C. for 4 days
smiles,measurement,value
"COc1cc(NC(C)CCCN)c2ncccc2c1 (stereo not shown) [Primaquine disodium salt, primaquine disodium salt]",Growth or non-growth of the strain on agar plate medium,+
